For six molecules, EC50 and melting point results are on record in patent US6833380B2, “Compounds that modulate PPAR activity and methods of preparation” (Warner-Lambert Company, LLC, priority 2002, dated 2004).

For series [1], the target named is T1, hPPARβ chimeric receptor (Homo sapiens, UniProt Q03181).
T1 construct: "expression plasmids encoding hPPARα, hPPARβ or mPPARγ chimeric receptors"
T1 sequence (Q03181 171-441 limits assumed): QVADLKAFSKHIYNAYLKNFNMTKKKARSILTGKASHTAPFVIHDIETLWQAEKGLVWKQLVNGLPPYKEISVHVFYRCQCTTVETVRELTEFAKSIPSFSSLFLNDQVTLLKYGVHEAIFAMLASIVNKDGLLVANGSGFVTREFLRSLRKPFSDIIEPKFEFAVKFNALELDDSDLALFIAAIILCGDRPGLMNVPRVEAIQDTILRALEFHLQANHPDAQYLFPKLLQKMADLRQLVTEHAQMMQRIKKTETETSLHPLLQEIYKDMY
The experiment in a line: Transient transfections assay using the HepG2 hepatoma cell line (Gal4-PPAR chimeric receptor, luciferase reporter), hPPARβ. The class given is cell-based. Conditions: HepG2 cells transiently transfected, 24 hours incubation, read-out: Hep G2-hβ EC50. The method, then:
(§1) 1. Test A. Transient Transfections Assay using the HepG2 Hepatoma Cell Line.
(§2) HepG2 cells were transiently transfected with an expression plasmids encoding hPPARα, hPPARβ or mPPARγ chimeric receptors and a reporter containing the yeast upstream activating sequence (UAS) upstream of the viral E1B promoter controlling a luciferase reporter gene. In addition, the plasmid pRSVβ-gal was used to control for transfection efficiency. HepG2 cells were grown in DMEM supplemented with 10% FBS and […] non-essential amino acid. On the first day, cells were split into 100 mm dishes at 2.5×10^6/dish and incubated overnight at 37° C./5% CO2. On the second day the cells were transiently transfected with plasmid DNA encoding a chimeric receptor, the luciferase reporter gene; and β-gal. For each 100 mm dish, 15 μg of lucifease reporter (PG5E1b) DNA, 15 μg of Gal4-PPAR chimeric receptor DNA, and 1.5 μg of β-gal plasmid DNA were mixed with 1.4 ml of opti-MEM in the tube. 28 μl of LipoFectamine-2000 reagent was added to 1.4 ml of opti-MEM in the tube, and incubate for 5 min at RT. The diluted Lipofectamine-2000 reagent was combined with the DNA mixture, and incubate for 20 min at RT. After fresh medium was added to each 100 mm dish of cells, 2.8 ml of Lipofectamine2000-DNA mixture was added dropwise to the 100 mm dish containing 14 ml of medium, and incubate 37° C. overnight. On day three cells were trypsinized off the 100 mm dishes and re-plated on 96 well plates. Cells were plated at 2.5×10^4 cells per well in 150 μl of media and 50 μl of compound diluted by media was added. The test compound added were in the range from 50 μM to 50 pM. After addition of compounds, the plates were incubated at 37° C. for 24 hours. Subsequently cells were washed with once with 100 μl of PBS, lysed, and processed for measuring luciferase and β-gal activity using Dual-Light luciferase kit from Tropix®, according to the manufacturer's recommendations, on an EG&G Bethold MicroLumat LB96P luminometer. EC50 values were obtained using the GraphPad Prism™ program. […] Accordingly, the compounds of the present invention should find considerable therapeutic applications for hypercholesterolemia and hyperlipidemia.

For series [2], the target named is T2, hPPARα chimeric receptor (Homo sapiens, UniProt Q07869).
T2 construct: "expression plasmids encoding hPPARα, hPPARβ or mPPARγ chimeric receptors"
T2 sequence (Q07869 200-468 limits assumed): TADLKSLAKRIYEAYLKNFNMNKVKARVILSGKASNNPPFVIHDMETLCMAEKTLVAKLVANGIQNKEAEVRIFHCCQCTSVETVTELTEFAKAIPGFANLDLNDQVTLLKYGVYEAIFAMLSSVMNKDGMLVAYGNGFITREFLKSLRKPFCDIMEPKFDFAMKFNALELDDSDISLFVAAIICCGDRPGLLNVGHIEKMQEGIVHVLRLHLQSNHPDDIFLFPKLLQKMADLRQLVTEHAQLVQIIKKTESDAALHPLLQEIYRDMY
Put plainly: Transient transfections assay using the HepG2 hepatoma cell line (Gal4-PPAR chimeric receptor, luciferase reporter), hPPARα. Format: cell-based. The note with it: HepG2 cells transiently transfected, 24 hours incubation, read-out: Hep G2-hα EC50. As for the experimental part: as §1, §2

Consider `Cc1nc(-c2ccc(C(F)(F)F)cc2)sc1CSc1ccc(OCC(=O)O)c2c1OCCC2` [Example 1, {8-[4-Methyl-2-(4-trifluoromethyl-phenyl)-thiazol-5-ylmethylsulfanyl]-chroman-5-yloxy}-acetic acid], for which, in series [1], the EC50 amounted to 187 nM.

Molecule `Cc1nc(-c2ccc(C(F)(F)F)cc2)sc1CSc1ccc(OCC(=O)O)c2c1CCCC2` [Example 2, {4-[4-Methyl-2-(4-trifluoromethyl-phenyl)-thiazol-5-ylmethylsulfanyl]-5,6,7,8-tetrahydro-naphthalen-1-yloxy}-acetic acid] came in with a melting point of 166 to 167 °C. In addition, the EC50 in series [1] was 52 nM. Besides, in series [2], the concentration for a half-maximal effect (EC50) is 2970 nM.

`Cc1nc(-c2ccc(C(F)(F)F)cc2)sc1CSc1ccc(OCC(=O)O)c2ccccc12` [Example 3, {4-[4-Methyl-2-(4-trifluoromethyl-phenyl)-thiazol-5-ylmethylsulfanyl]-naphthalen-1-yloxy}-acetic acid] registered a melting point of 181 to 183 °C. In series [1], the EC50 was 76 nM. Further, the EC50 in series [2] amounted to 3580 nM.

Molecule `Cc1cc(SCc2sc(-c3ccc(C(F)(F)F)cc3)nc2C)c2c(c1OCC(=O)O)CCCO2` [Example 4, 2-[6-methyl-8-({4-methyl-2-[4-(trifluoromethyl)phenyl](1,3-thiazol-5-yl)}methylthio)chroman-5-yloxy]acetic acid] gave a melting point of 203.5 to 205.5 °C. Also, the EC50 in series [1] was found to be 45 nM. Besides, in series [2], the concentration for a half-maximal effect (EC50) came out at 1760 nM.

`Cc1cc(SCc2sc(-c3ccc(C(F)(F)F)cc3)nc2C)c2c(c1OCC(=O)O)CCO2` [Example 5, 2-[5-methyl-7-({4-methyl-2-[4-(trifluoromethyl)phenyl](1,3-thiazol-5-yl)}methylthio)-2,3-dihydrobenzo[b]furan-4-yloxy]acetic acid]: the melting point fell in the range of 157 to 158 °C. In addition, in series [1], the concentration giving a half-maximal response (EC50) worked out at 0.8 nM. Besides, in series [2], the concentration giving a half-maximal response (EC50) was 52 nM.

`Cc1cc(SCc2sc(-c3ccc(C(F)(F)F)cc3)nc2C)c2c(c1OCC(=O)O)CCC2` [Example 6, {5-Methyl-7-[4-methyl-2-(4-trifluoromethyl-phenyl)-thiazol-5-ylmethylsulfanyl]-indan-4-yloxy}-acetic acid] registered a melting point of 184 °C. Moreover, the EC50 in series [1] worked out at 133 nM. For the same molecule, the EC50 in series [2] was determined as 191 nM.
